From ChEMBL document CHEMBL1147947, “In vitro activity of novel dual action MDR anthranilamide modulators with inhibitory activity on CYP-450 (Part 2)” (Bioorg Med Chem, 2007)
Activity calls are given as the source filed them. The rule behind the calls is not given here.

Assays:
[1] = target: Cytochrome P450 3A4 (Homo sapiens, UniProt P08684); test: Inhibition of human CYP3A4 expressed in insect microsome using 7-benzyloxy-4-trifluoromethylcoumarin substrate after 30 mins; format: ADME, microsomes
Chain of Cytochrome P450 3A4 (P08684 whole entry): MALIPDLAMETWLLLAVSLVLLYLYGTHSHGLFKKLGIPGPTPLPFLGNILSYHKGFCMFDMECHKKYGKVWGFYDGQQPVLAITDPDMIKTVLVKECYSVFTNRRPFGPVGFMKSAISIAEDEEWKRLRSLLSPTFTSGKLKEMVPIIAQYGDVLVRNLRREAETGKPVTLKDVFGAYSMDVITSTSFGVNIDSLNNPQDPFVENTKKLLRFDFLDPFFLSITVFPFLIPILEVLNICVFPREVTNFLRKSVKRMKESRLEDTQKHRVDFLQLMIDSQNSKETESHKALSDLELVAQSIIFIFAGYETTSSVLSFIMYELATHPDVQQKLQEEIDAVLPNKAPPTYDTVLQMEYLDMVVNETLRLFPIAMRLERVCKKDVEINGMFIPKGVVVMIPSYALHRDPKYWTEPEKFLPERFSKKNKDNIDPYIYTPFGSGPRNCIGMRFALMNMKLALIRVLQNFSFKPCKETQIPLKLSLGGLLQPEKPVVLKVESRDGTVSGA

[2] = target: Cytochrome P450 2C9 (Homo sapiens, UniProt P11712); test: Inhibition of human CYP2C9 expressed in insect microsome after 45 mins; format: ADME, microsomes
Chain of Cytochrome P450 2C9 (P11712 whole entry): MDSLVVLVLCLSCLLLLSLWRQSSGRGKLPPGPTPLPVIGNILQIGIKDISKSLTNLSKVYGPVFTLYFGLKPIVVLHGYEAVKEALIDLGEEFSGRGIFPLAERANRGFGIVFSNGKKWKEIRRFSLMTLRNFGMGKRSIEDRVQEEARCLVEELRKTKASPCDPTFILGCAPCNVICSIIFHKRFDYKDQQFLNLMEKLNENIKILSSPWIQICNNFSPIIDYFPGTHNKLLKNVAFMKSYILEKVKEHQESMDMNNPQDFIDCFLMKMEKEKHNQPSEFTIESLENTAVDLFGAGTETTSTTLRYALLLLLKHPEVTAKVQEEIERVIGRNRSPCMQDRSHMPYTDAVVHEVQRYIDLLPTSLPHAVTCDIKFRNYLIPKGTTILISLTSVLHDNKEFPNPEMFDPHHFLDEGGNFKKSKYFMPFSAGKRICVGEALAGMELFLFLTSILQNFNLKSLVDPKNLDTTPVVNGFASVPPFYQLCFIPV

[3] = target: T1, Cytochrome P450 2B6 (Homo sapiens, UniProt P20813); test: Inhibition of human CYP2B6 expressed in insect microsome after 30 mins; format: ADME, microsomes
T1 sequence (P20813 whole entry): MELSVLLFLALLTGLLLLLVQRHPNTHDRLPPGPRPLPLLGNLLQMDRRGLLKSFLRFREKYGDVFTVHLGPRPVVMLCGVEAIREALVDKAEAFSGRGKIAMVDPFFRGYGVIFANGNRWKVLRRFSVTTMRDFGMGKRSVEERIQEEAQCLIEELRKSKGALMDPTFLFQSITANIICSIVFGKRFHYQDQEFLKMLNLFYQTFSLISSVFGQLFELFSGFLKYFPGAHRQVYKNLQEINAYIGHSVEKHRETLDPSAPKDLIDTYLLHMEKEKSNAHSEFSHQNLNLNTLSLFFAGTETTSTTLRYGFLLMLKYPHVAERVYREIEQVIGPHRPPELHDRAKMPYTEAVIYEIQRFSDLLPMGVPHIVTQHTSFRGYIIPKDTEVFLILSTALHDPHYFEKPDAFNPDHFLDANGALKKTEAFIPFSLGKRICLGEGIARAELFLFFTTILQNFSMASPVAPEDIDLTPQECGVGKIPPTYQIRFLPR

[4] = tested on: CEM/VLB500; test: Growth inhibition of human CEM/VLB500 cells at 1 uM after 3 days by resazurin assay; format: functional, cell-based
[5] = target: Cytochrome P450 2C19 (Homo sapiens, UniProt P33261); test: Inhibition of human CYP2C19 expressed in insect microsome after 30 mins; format: ADME, microsomes
Chain of Cytochrome P450 2C19 (P33261 whole entry): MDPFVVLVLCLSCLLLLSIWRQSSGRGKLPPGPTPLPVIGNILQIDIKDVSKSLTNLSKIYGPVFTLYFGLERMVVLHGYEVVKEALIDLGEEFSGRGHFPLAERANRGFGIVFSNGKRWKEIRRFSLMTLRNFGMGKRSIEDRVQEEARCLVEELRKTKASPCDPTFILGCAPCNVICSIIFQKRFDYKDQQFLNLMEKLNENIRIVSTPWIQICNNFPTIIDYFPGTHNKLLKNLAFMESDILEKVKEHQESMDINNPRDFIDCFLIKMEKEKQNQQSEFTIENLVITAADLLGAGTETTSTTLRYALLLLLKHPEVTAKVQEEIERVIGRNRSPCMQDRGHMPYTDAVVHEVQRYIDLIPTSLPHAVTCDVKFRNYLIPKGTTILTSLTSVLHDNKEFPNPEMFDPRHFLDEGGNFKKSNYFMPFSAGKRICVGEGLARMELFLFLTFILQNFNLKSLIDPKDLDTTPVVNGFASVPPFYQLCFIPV

[6] = Growth inhibition of human CEM/VLB500 cells after 3 days by resazurin assay; format: functional; settings: CEM/VLB500, 72 h
[7] = target: T2, Cytochrome P450 1A2 (Homo sapiens, UniProt P05177); test: Inhibition of human CYP1A2 expressed in insect microsome after 15 mins; format: ADME, microsomes
T2 sequence (P05177 whole entry): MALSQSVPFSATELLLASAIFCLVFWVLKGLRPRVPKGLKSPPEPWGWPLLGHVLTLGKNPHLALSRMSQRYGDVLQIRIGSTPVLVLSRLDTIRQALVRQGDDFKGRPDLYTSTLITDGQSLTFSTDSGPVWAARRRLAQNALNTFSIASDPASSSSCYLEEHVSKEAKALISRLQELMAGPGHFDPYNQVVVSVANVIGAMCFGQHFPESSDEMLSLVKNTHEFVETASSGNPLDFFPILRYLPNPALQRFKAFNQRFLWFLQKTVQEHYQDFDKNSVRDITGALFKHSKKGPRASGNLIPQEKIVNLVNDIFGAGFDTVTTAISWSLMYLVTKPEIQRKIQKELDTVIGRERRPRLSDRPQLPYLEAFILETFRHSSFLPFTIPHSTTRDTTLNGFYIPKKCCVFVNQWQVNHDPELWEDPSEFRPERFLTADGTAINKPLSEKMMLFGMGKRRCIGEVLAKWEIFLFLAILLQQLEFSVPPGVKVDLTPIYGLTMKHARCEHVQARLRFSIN

[8] = target: Cytochrome P450 2D6 (Homo sapiens, UniProt P10635); test: Inhibition of human CYP2D6 expressed in insect microsome after 30 mins; format: ADME, microsomes
Chain of Cytochrome P450 2D6 (P10635 whole entry): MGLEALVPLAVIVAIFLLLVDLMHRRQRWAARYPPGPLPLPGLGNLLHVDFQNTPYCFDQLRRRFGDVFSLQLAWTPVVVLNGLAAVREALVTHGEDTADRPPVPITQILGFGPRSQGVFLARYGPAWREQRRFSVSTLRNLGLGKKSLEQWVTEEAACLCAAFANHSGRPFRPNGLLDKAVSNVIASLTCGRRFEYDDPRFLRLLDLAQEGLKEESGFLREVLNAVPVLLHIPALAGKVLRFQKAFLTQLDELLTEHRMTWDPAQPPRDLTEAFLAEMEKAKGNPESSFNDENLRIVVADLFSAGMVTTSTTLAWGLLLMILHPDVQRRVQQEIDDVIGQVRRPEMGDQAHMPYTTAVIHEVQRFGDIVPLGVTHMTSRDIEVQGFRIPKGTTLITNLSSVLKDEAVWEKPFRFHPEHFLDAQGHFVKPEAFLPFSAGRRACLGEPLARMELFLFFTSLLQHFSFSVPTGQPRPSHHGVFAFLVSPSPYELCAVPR

[9] = target: T3, Cytochrome P450 2C8 (Homo sapiens, UniProt P10632); test: Inhibition of human CYP2C8 expressed in insect microsome after 30 mins; format: ADME, microsomes
T3 sequence (P10632 whole entry): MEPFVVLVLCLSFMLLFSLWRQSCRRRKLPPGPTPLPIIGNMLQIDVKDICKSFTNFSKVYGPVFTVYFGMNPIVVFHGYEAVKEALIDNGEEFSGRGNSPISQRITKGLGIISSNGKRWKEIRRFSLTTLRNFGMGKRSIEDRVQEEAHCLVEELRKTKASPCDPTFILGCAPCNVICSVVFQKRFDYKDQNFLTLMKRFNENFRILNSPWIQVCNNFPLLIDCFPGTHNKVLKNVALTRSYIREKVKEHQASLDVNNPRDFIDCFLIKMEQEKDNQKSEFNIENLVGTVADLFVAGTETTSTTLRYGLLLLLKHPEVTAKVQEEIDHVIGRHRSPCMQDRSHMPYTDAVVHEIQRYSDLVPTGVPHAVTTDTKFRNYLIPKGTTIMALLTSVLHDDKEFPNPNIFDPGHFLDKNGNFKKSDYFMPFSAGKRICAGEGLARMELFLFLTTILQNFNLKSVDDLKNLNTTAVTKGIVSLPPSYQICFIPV

[10] = target: T4, Cytochrome P450 2A6 (Homo sapiens, UniProt P11509); test: Inhibition of human CYP2A6 expressed in insect microsome after 15 mins; format: ADME, microsomes
T4 sequence (P11509 whole entry): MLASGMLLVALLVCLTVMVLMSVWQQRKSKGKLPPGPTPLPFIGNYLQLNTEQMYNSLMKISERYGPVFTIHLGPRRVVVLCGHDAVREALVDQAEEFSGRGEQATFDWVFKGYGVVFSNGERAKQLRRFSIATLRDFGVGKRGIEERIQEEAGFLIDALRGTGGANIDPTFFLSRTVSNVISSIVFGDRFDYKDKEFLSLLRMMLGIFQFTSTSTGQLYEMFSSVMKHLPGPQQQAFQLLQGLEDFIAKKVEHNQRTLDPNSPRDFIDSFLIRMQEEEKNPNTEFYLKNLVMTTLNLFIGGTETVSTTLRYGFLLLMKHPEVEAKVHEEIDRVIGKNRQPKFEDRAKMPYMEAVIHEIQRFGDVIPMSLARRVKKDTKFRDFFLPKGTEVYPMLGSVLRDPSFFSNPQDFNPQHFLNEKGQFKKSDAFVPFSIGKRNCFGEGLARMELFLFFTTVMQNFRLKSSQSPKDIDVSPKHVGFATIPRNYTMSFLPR

[11] = target: Cytochrome P450 2E1 (Homo sapiens, UniProt P05181); test: Inhibition of human CYP2E1 expressed in insect microsome after 45 mins; format: ADME, microsomes
Chain of Cytochrome P450 2E1 (P05181 whole entry): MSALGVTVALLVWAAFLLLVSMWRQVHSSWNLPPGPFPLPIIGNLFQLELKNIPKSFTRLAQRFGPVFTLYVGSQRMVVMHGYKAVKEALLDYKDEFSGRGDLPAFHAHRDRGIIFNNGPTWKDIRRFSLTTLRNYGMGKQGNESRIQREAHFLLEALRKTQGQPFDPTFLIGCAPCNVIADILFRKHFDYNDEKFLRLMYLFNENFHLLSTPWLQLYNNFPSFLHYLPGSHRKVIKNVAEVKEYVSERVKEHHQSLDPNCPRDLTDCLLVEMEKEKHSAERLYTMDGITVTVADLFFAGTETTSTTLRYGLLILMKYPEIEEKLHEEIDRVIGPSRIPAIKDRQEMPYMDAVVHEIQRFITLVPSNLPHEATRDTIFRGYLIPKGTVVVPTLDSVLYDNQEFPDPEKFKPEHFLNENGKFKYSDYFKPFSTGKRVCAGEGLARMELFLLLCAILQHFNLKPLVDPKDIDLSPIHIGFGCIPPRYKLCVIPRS

IC50 [1] [µM] | IC50 [2] [µM] | IC50 [3] [µM] | IC50 [5] [µM] | IC50 [7] [µM] | IC50 [8] [µM] | IC50 [9] [µM] | IC50 [10] [µM] | IC50 [11] [µM] | SMILES | Activity [4] | GI50 [6] [µM]
0.195 | 0.0968 | 100 | 0.393 | 6.68 | 17.3 | 1.08 |  |  | COc1ccc(CN2CCN(c3ccc(NC(=O)c4cc(OC)c(OC)cc4NC(=O)c4cnc5ccccc5c4)cc3)CC2)cc1OC | inactive | ≥ 15
 |  |  |  |  |  |  |  |  | COc1ccc(CCN2CCC[C@H]2CNC(=O)c2ccccc2NC(=O)c2cnc3ccccc3c2)cc1OC |  | > 15
1.62 | 2.08 | > 100 | 14.7 | > 100 | > 100 | 5.82 | > 100 | > 100 | COc1ccc(CCN(C)CCNC(=O)c2ccccc2NC(=O)c2cnc3ccccc3c2)cc1OC |  | 
 |  |  |  |  |  |  |  |  | COc1ccc(CCN2CCC[C@@H]2CNC(=O)c2ccccc2NC(=O)c2cnc3ccccc3c2)cc1OC |  | > 15
 |  |  |  |  |  |  |  |  | COc1ccc(CCN(C)CCC[C@@](C#N)(c2ccc(OC)c(OC)c2)C(C)C)cc1OC |  | > 15
 |  |  |  |  |  |  |  |  | O=C(Nc1ccccc1C(=O)N[C@@H]1CCCC[C@@H]1N1CCN(c2ccccc2)CC1)c1cnc2ccccc2c1 (racemic) |  | 11.5
20.2 | > 10 | > 100 | 23 | > 100 | > 100 | 13.3 | > 100 | > 100 | COc1ccc(CN2CCN(c3ccc(NC(=O)c4ccccc4NC(=O)c4cnc5ccccc5c4)cc3)CC2)cc1OC |  | > 15

SMILES | IC50 [1] [µM] | IC50 [2] [µM] | IC50 [3] [µM] | IC50 [5] [µM] | IC50 [7] [µM] | IC50 [8] [µM] | IC50 [9] [µM] | IC50 [10] [µM] | IC50 [11] [µM] | Activity [4] | GI50 [6] [µM]
COc1cc2c(cc1OC)CN(CCc1ccc(NC(=O)c3cc(OC)c(OC)cc3NC(=O)c3cnc4ccccc4c3)cc1)CC2 |  | 7.1 | > 100 | > 10 |  | 100 | 45.3 | > 100 | > 100 |  | 13.5
